The results in this text go back to patent US11345711B2, “8,9-dihydroimidazo[1,2-a]pyrimido[5,4-e]pyrimidin-5(6H)-ones” (IMPACT THERAPEUTICS (SHANGHAI), INC, priority 2016, dated 2022).

Assay [1] addresses Wee1 (h) (Homo sapiens, UniProt P30291). Kind of assay: Wee1 kinase (h) detection method, [γ-33P]-ATP filter assay. The class given is biochemical.
In assay [2] the test system is NCI-H1299 cells. The assay is described as follows: MTT based cell viability assay on NCI-H1299 cells. As to conditions: Homo sapiens, read-out: IC50, growth inhibition of NCI-H1299 cells. In a few lines: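 Viability read-out was MTT reduction (0.5 mg/mL, 4 h, absorbance 552/630/690 nm) after 3-day compound exposure at 37 °C of NCI-H1299 cells seeded at 1000 per well. Dilutions spanned 10 μM–0.01 μM in DMSO, final DMSO 1‰. Survival-versus-concentration curves were fitted sigmoidally to give IC50.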

Assay [3] deals with LoVo cells. Kind of assay: MTT based cell viability assay on LoVo cells. The following applies: Homo sapiens, LoVo, 72 h, 3 d, read-out: IC50, growth inhibition of LoVo cells. The method, boiled down:
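Inhibition of LoVo proliferation was derived as IC50 from a sigmoidal dose-response fit of cell survival. Readout was MTT (0.5 mg/mL, 4 h) with absorbance at 552/630/690 nm, after 3-day treatment at 37 °C. Eight-point series from 10 μM to 0.01 μM, DMSO control, 1% DMSO final.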

Like-named read-outs stand apart in the source and are kept apart here.

Wee1 (h), sequence (P30291 whole entry): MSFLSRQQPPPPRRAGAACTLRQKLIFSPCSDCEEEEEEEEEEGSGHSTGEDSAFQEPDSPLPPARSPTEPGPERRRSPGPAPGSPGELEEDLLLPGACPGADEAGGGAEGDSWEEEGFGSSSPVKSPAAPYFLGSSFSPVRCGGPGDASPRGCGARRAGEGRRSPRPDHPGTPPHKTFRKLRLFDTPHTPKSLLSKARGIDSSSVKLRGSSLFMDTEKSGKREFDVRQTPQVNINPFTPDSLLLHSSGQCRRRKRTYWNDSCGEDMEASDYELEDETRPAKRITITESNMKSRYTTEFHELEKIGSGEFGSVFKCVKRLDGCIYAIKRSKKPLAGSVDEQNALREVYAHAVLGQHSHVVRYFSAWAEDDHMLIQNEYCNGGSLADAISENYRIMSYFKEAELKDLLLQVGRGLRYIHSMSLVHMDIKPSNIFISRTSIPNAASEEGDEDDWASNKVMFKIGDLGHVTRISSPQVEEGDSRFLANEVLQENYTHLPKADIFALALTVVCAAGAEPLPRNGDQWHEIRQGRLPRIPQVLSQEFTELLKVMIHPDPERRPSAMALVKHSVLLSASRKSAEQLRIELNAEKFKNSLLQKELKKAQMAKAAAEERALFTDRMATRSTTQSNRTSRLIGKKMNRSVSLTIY

On to `Cc1cc(Nc2ncc3c(n2)N2CCN=C2N(c2c(F)cccc2Cl)C3=O)ccc1N1C[C@@H](C)N(C(C)C)[C@@H](C)C1` [Example 53, 6-(2-Chloro-6-fluorophenyl)-2-((4-((3S,5R)-4-isopropyl-3,5-dimethylpiperazin-1-yl)-3-methylphenyl)amino)-8,9-dihydroimidazo[1,2-a]pyrimido[5,4-e]pyrimidin-5(6H)-one], for which the results for the “Inh. (%) of Wee1 kinase enzyme activity” value in assay [1] (C 0.01 μm compound), in assay [1] (C 0.1 μm compound) and in assay [1] (C 1 μm compound) were 13%, 82% and 91%, respectively. For the same molecule, the IC50 in assay [2] (NCI-H1299, NCI-H1299 cells) turned out to be 145 nM; in assay [3] it was 85.5 nM.

`COc1cc(Nc2ncc3c(n2)N2CCN=C2N(c2c(F)cccc2Cl)C3=O)ccc1N1CCN(C)CC1` [Example 54, 6-(2-Chloro-6-fluorophenyl)-2-((3-methoxy-4-(4-methylpiperazin-1-yl)phenyl)amino)-8,9-dihydroimidazo[1,2-a]pyrimido[5,4-e]pyrimidin-5(6H)-one]: in assay [1] (C 1 μm compound), the “Inh. (%) of Wee1 kinase enzyme activity” value worked out at 81%. Besides, the half-inhibitory concentration (IC50) turned out to be 1530 nM in assay [2] (NCI-H1299 cells) and 155 nM in assay [3].

Regarding `CN1CCN(c2ccc(Nc3ncc4c(n3)N3CCN=C3N(c3c(F)cccc3Cl)C4=O)cc2[N+](=O)[O-])CC1` [Example 55, 6-(2-Chloro-6-fluorophenyl)-2-((4-(4-methylpiperazin-1-yl)-3-nitrophenyl)amino)-8,9-dihydroimidazo[1,2-a]pyrimido[5,4-e]pyrimidin-5(6H)-one], the “Inh. (%) of Wee1 kinase enzyme activity” value in assay [1] (C 1 μm compound) was determined as 12%. Also, the IC50 in assay [2] (NCI-H1299 cells) is greater than 10000 nM; in assay [3] it was greater than 100000 nM.

Regarding `Cc1cc(Nc2ncc3c(n2)N2CCN=C2N(c2c(F)cccc2Cl)C3=O)cc(C)c1N1CCN(C)CC1` [Example 56, 6-(2-Chloro-6-fluorophenyl)-2-((3,5-dimethyl-4-(4-methylpiperazin-1-yl)phenyl)amino)-8,9-dihydroimidazo[1,2-a]pyrimido[5,4-e]pyrimidin-5(6H)-one], the “Inh. (%) of Wee1 kinase enzyme activity” value was 14% in assay [1] (C 0.01 μm compound), 80% in assay [1] (C 0.1 μm compound) and 90% in assay [1] (C 1 μm compound). The 50% inhibitory concentration (IC50) in assay [2] (NCI-H1299, NCI-H1299 cells) is 318 nM; in assay [3] it was 47 nM.

Take `CN1CCN(c2ccc(Nc3ncc4c(n3)N3CCN=C3N(c3c(F)cccc3Cl)C4=O)cn2)CC1` [Example 57, 6-(2-Chloro-6-fluorophenyl)-2-((6-(4-methylpiperazin-1-yl)pyridin-3-yl)amino)-8,9-dihydroimidazo[1,2-a]pyrimido[5,4-e]pyrimidin-5(6H)-one]: the “Inh. (%) of Wee1 kinase enzyme activity” value in assay [1] (C 0.01 μm compound) worked out at 36%; in assay [1] (C 0.1 μm compound), 80%; in assay [1] (C 1 μm compound) it was 89%. For the same molecule, the IC50 in assay [2] (NCI-H1299 cells) is greater than 10000 nM; in assay [3] it was 13600 nM.

For the molecule `CC(C)N1Cc2cc(Nc3ncc4c(n3)N3CCN=C3N(c3c(F)cccc3Cl)C4=O)ccc2C2(CC2)C1` [Example 58, 6-(2-Chloro-6-fluorophenyl)-2-((2′-isopropyl-2′,3′-dihydro-1′H-spiro[cyclopropane-1,4′-isoquinolin]-7′-yl)amino)-8,9-dihydroimidazo[1,2-a]pyrimido[5,4-e]pyrimidin-5(6H)-one], the “Inh. (%) of Wee1 kinase enzyme activity” value is 46% in assay [1] (C 0.01 μm compound), 92% in assay [1] (C 0.1 μm compound) and 100% in assay [1] (C 1 μm compound). Moreover, the IC50 amounted to 426 nM in assay [2] (NCI-H1299 cells) and 90 nM in assay [3].

For the molecule `CN1CCn2nc(Nc3ncc4c(n3)N3CCN=C3N(c3c(F)cccc3Cl)C4=O)cc2C1` [Example 59, 6-(2-Chloro-6-fluorophenyl)-2-((5-methyl-4,5,6,7-tetrahydropyrazolo[1,5-a]pyrazin-2-yl)amino)-8,9-dihydroimidazo[1,2-a]pyrimido[5,4-e]pyrimidin-5(6H)-one], in assay [1] (C 1 μm compound), the “Inh. (%) of Wee1 kinase enzyme activity” value came to 49%. For the same molecule, the IC50 was greater than 10000 nM in assay [2] (NCI-H1299 cells) and greater than 100000 nM in assay [3].

For the molecule `Cc1cc(Nc2ncc3c(n2)N2CCN=C2N(c2c(F)cccc2F)C3=O)ccc1N1CCN(C)CC1` [Example 60, 6-(2,6-Difluorophenyl)-2-((3-methyl-4-(4-methylpiperazin-1-yl)phenyl)amino)-8,9-dihydroimidazo[1,2-a]pyrimido[5,4-e]pyrimidin-5(6H)-one], the results for the “Inh. (%) of Wee1 kinase enzyme activity” value in assay [1] (C 0.01 μm compound), in assay [1] (C 0.1 μm compound) and in assay [1] (C 1 μm compound) were 15%, 71% and 91%, respectively. Further, the results for the IC50 in assay [2] (NCI-H1299 cells) and in assay [3] were 992 nM and 158 nM, respectively.

As to `Cc1cc(Nc2ncc3c(n2)N2CCN=C2N(c2c(F)cccc2C(F)(F)F)C3=O)ccc1N1CCN(C)CC1` [Example 61, 6-(2-Fluoro-6-(trifluoromethyl)phenyl)-2-((3-methyl-4-(4-methylpiperazin-1-yl)phenyl)amino)-8,9-dihydroimidazo[1,2-a]pyrimido[5,4-e]pyrimidin-5(6H)-one], the “Inh. (%) of Wee1 kinase enzyme activity” value in assay [1] (C 1 μm compound) came to 82%. Also, the results for the 50% inhibitory concentration (IC50) in assay [2] (NCI-H1299 cells) and in assay [3] were 1230 nM and 757 nM, respectively.

Take `Cc1cc(Nc2ncc3c(n2)N2CCN=C2N(c2c(C)cccc2F)C3=O)ccc1N1CCN(C)CC1` [Example 62, 6-(2-Fluoro-6-methylphenyl)-2-((3-methyl-4-(4-methylpiperazin-1-yl)phenyl)amino)-8,9-dihydroimidazo[1,2-a]pyrimido[5,4-e]pyrimidin-5(6H)-one]: the “Inh. (%) of Wee1 kinase enzyme activity” value in assay [1] (C 1 μm compound) worked out at 83%. Besides, the values for the half-maximal inhibitory concentration (IC50) in assay [2] (NCI-H1299 cells) and in assay [3] were 925 nM and 194 nM, respectively.

For `CC(C)N1CCN(c2ccc(Nc3ncc4c(n3)N3CCN=C3N(c3c(Cl)cccc3Cl)C4=O)cc2)CC1` [Example 63, 6-(2,6-Dichlorophenyl)-2-((4-(4-isopropylpiperazin-1-yl)phenyl)amino)-8,9-dihydroimidazo[1,2-a]pyrimido[5,4-e]pyrimidin-5(6H)-one], the results for the “Inh. (%) of Wee1 kinase enzyme activity” value in assay [1] (C 0.01 μm compound), in assay [1] (C 0.1 μm compound) and in assay [1] (C 1 μm compound) were 17%, 76% and 99%, respectively. Moreover, the values for the half-maximal inhibitory concentration (IC50) in assay [2] (NCI-H1299 cells) and in assay [3] were 360 nM and 76.8 nM, respectively.

For the molecule `C[C@@H]1CN(c2ccc(Nc3ncc4c(n3)N3CCN=C3N(c3c(Cl)cccc3Cl)C4=O)cc2)C[C@H](C)N1C` [Example 64, 6-(2,6-Dichlorophenyl)-2-((4-((3S,5R)-3,4,5-trimethylpiperazin-1-yl)phenyl)amino)-8,9-dihydroimidazo[1,2-a]pyrimido[5,4-e]pyrimidin-5(6H)-one], the “Inh. (%) of Wee1 kinase enzyme activity” value in assay [1] (C 0.01 μm compound) is reported as 52%; in assay [1] (C 0.1 μm compound), 88%; in assay [1] (C 1 μm compound) it was 100%. Besides, the values for the IC50 in assay [2] (NCI-H1299 cells) and in assay [3] were 177 nM and 96.5 nM, respectively.

On to `CC(C)N1[C@H](C)CN(c2ccc(Nc3ncc4c(n3)N3CCN=C3N(c3c(Cl)cccc3Cl)C4=O)cc2)C[C@@H]1C` [Example 65, 6-(2,6-Dichlorophenyl)-2-((4-((3S,5R)-4-isopropyl-3,5-dimethylpiperazin-1-yl)phenyl)amino)-8,9-dihydroimidazo[1,2-a]pyrimido[5,4-e]pyrimidin-5(6H)-one], for which the figures for the “Inh. (%) of Wee1 kinase enzyme activity” value in assay [1] (C 0.01 μm compound), in assay [1] (C 0.1 μm compound) and in assay [1] (C 1 μm compound) were 18%, 68% and 98%, respectively. Also, the IC50 in assay [2] (NCI-H1299 cells) turned out to be 404 nM; in assay [3], 102 nM.

As to `C[C@@H]1CN(c2ccc(Nc3ncc4c(n3)N3CCN=C3N(c3c(Cl)cccc3Cl)C4=O)c(F)c2)C[C@H](C)N1C` [Example 66, 6-(2,6-Dichlorophenyl)-2-((2-fluoro-4-((3S,5R)-3,4,5-trimethylpiperazin-1-yl)phenyl)amino)-8,9-dihydroimidazo[1,2-a]pyrimido[5,4-e]pyrimidin-5(6H)-one], the “Inh. (%) of Wee1 kinase enzyme activity” value in assay [1] (C 1 μm compound) is on record as 0%. The IC50 in assay [2] (NCI-H1299 cells) was greater than 10000 nM; in assay [3], greater than 100000 nM.

`C[C@@H]1CN(c2ccc(Nc3ncc4c(n3)N3CCN=C3N(c3c(Cl)cccc3Cl)C4=O)c(Cl)c2)C[C@H](C)N1C` [Example 67, 6-(2,6-Dichlorophenyl)-2-((2-chloro-4-((3S,5R)-3,4,5-trimethylpiperazin-1-yl)phenyl)amino)-8,9-dihydroimidazo[1,2-a]pyrimido[5,4-e]pyrimidin-5(6H)-one]: the “Inh. (%) of Wee1 kinase enzyme activity” value in assay [1] (C 1 μm compound) is given as 24%. The values for the IC50 in assay [2] (NCI-H1299 cells) and in assay [3] were greater than 10000 nM and greater than 100000 nM, respectively.

For the molecule `C[C@@H]1CN(c2ccc(Nc3ncc4c(n3)N3CCN=C3N(c3c(Cl)cccc3Cl)C4=O)c(C(F)(F)F)c2)C[C@H](C)N1C` [Example 68, 6-(2,6-Dichlorophenyl)-2-((2-trifluoromethyl-4-((3S,5R)-3,4,5-trimethylpiperazin-1-yl)phenyl)amino)-8,9-dihydroimidazo[1,2-a]pyrimido[5,4-e]pyrimidin-5(6H)-one], the “Inh. (%) of Wee1 kinase enzyme activity” value in assay [1] (C 1 μm compound) was found to be 6%. Further, the IC50 in assay [2] (NCI-H1299 cells) was greater than 10000 nM; in assay [3] it was greater than 100000 nM.

As for `CN1CCN(c2ccc(Nc3ncc4c(n3)N3CCN=C3N(c3c(Cl)cccc3Cl)C4=O)cc2F)CC1` [Example 69, 6-(2,6-Dichlorophenyl)-2-((3-fluoro-4-(4-methylpiperazin-1-yl)phenyl)amino)-8,9-dihydroimidazo[1,2-a]pyrimido[5,4-e]pyrimidin-5(6H)-one], the “Inh. (%) of Wee1 kinase enzyme activity” value was found to be 24% in assay [1] (C 0.01 μm compound), 73% in assay [1] (C 0.1 μm compound) and 97% in assay [1] (C 1 μm compound). Further, the 50% inhibitory concentration (IC50) in assay [2] (NCI-H1299, NCI-H1299 cells) was found to be 426 nM; in assay [3], 105 nM.

What is called IC50 is the concentration that gives 50% inhibition.
